“And” between values parts separate entries of the source, which are not always exact repeats. Identical values can stand only once. “Also recorded” adds a separate entry of the source.
Legend:
[1] = test system: HCT116 colon cancer cells; assay: HCT116 cell viability (MTS assay); type: cell-based; conditions: inhibition of growth of HCT116 colon cancer cells, incubation time 48 h
Protocol: (§1) MCF-7 breast carcinoma cells were obtained from the National Cancer Institute drug screening laboratory. HCT116 cell line was grown in Dulbecco's modified Eagle's medium (DMEM). BX-PC3 cells were grown in RPMI-1640 medium. Both media were supplemented with 10% fetal bovine serum (FBS), 100 U mL^−1 penicillin, […] streptomycin and 1% of L-glutamine. Cell lines were cultured at 37 °C in 5% CO2 and 95% air in a humidified incubator. T-ALL (Jurkat) cells were grown in RPMI-1640 medium. Both media were supplemented with 115 units per mL of penicillin G, 115 μg mL^−1 of streptomycin, and 10% fetal bovine serum (FBS, all purchased from Invitrogen, Milan, Italy). Cancer cells were seeded in tissue treated, flat bottom, 384-well plates (Corning, Corning, NY, USA) in 24 μL of complete medium per well, using a Microlab STAR 96-CORE liquid handling system (Hamilton Bonaduz, Bonaduz, Switzerland).
(§2) Cell viability of HCT116 and BX-PC3 cells was determined using the 3-(4,5-dimethylthiazol-2-yl)-5-(3-carboxymethoxyphenyl)-2-(4-sulfophenyl)-2H-tetrazolium (MTS) colorimetric assay.[38] […] After 48 h of growth, the MTS reagent was added to each well and absorbance at […] was measured by a microplate reader (Victor, PerkinElmer). The results were expressed as % relative to control cells (100%) and IC50 values were calculated using GraphPad Prism statistics software by nonlinear regression analysis.

BX-PC3 spheroids = assay: 3D culture (spheroids) from BX-PC3 cells; type: cell-based; conditions: 320 nM for 48 h
Protocol: (§3) 3D culturing of BX-PC3 and HCT116 cells were performed seeding 500 cells/well into ultra-low attachment 96-well round-bottomed plates and cultured in supplemented RPMI and DMEM, respectively, at 37 °C under […] atmosphere for 7 days, until spheroids were formed. To evaluate the effect of compound 4 on spheroid growth, a range of doses (10–320 nM) was added to the cell suspension after spheroid formation, and the culture was maintained for 48 h. Spheroid diameters wwere measured using the ZEISS ZEN imaging software from the pictures obtained with an inverted optical microscope (Axio Vert A1, Zeiss, Oberkochen, Germany).

HCT116 spheroids = assay: 3D culture (spheroids) from HCT116 cells; type: cell-based; conditions: 160 nM for 48 h
Protocol: as §3

[2] = test system: Jurkat T lymphocyte cancer cells; assay: Jurkat (T-ALL) cell viability (resazurin assay); type: cell-based; conditions: Homo sapiens, 96 h, inhibition of growth of Jurkat T lymphocyte cancer cells, incubation time 96 h
Protocol: as §1, with “Cancer cells were seeded in tissue treated, flat bottom, 384-well plates (Corning, Corning, NY, USA) in 24 μL of complete medium per well, using a Microlab STAR 96-CORE liquid handling system (Hamilton Bonaduz, Bonaduz, Switzerland).” left out
For T-ALL, drug stock solutions were prepared for each compound by dissolving them at 10 mM in DMSO. […] The fluorescence signal was measured at 590 nm using a Spark 10 M spectrophotometer (Tecan Group Ltd., Mannedorf, Switzerland). Only plates with Z′ > 0.5 were further analyzed for the drug screening. Raw data were normalized according to the following equation: cell viability (%) = (x − POS)/(NEG − POS) × 100, where x is the relative fluorescence units (RFU) collected from each single well, NEG is the mean of intraplate negative controls (DMSO, corresponding to 100% cell viability), and POS is the mean of intraplate positive controls (benzethonium chloride 75 μM, equal to 0% cell viability). […]

[3] = test system: BX-PC3 pancreatic cancer cells; assay: BX-PC3 cell viability (MTS assay); type: cell-based; conditions: Homo sapiens, BXPC-3; inhibition of growth of BX-PC3 pancreatic cancer cells; incubation time 48 h
Protocol: as §1, §2

[4] = test system: MCF-7 human breast carcinoma cells; assay: MCF-7 cell growth inhibition; type: cell-based; conditions: Homo sapiens, MCF7, cells grown for 96 h, read-out: MCF-7 IC50 ± SD
tubulin [5] = assay: Inhibition of [3H]colchicine binding to tubulin
Protocol: The reaction mixtures contained 1.0 μM tubulin, 5.0 μM [^3H]colchicine, and 5.0 or 1.0 μM inhibitor, as indicated, and were incubated for 10 min at 37 °C. Complete details were described previously.[36]

tubulin [6] = assay: Inhibition of tubulin polymerization (tubulin assembly, turbidity at 350 nm); type: biochemical; conditions: tubulin at 10 μM, read-out: Tubulin IC50 ± SD
Protocol: The assembly reaction mixtures contained 0.8 M monosodium glutamate (pH 6.6 with HCl in a 2 M stock solution), 10 μM tubulin, 4% (v/v) DMSO, and varying concentrations of drug. Following a 15 min preincubation at 30 °C, samples were chilled on ice, GTP to 0.4 mM was added, and turbidity development was followed at 350 nm in a temperature-controlled recording spectrophotometer for 20 min at 30 °C. The extent of reaction was measured. Full experimental details were previously described.[35]

For `COc1ccc(-c2cn(-c3ccccn3)cc2C(=O)c2cc(OC)c(OC)c(OC)c2)cc1` [Compound 4, (4-(4-Methoxyphenyl)-1-(pyridin-2-yl)-1H-pyrrol-3-yl)(3,4,5-trimethoxyphenyl)methanone], the IC50 ([1]; Homo sapiens, HCT-116, 48 h) was 18 nM, the IC50 [1] was 28 nM and the “Spheroid diameter and morphology” value (BX-PC3 spheroids) was “altered the morphology of treated spheroids; also recorded: significant reduction of spheroid diameter”. For the same compound, the “Spheroid diameter and morphology” value (HCT116 spheroids) was “altered the morphology of treated spheroids; also recorded: significant reduction of spheroid diameter”, the IC50 [2] was 41 nM and the IC50 [3] was 17 nM. The IC50 [4] was 9.6 ± 0.8 nM, the “Colch. binding (% ± SD)” value (tubulin [5]; inhibition of [3H]colchicine binding, tubulin, [3H]colchicine, inhibitor at 1, 5 and 5 μM) was 78% and 78 ± 1% and the “Inhibition of [3H]colchicine binding” value (tubulin [5]; inhibitor at 1 μM, tubulin 1 μM, [3H]colchicine 5 μM) was 76%. The IC50 (tubulin [6]) was 190 ± 6 nM.

Source: PMC12306498, “Microwave-assisted synthesis of tubulin assembly inhibitors as anticancer agents by aryl ring reversal and conjunctive approach” (RSC Medicinal Chemistry, 2025)
